In patent publication US5264433A, “Benzodiazepine derivatives” (Fujisawa Pharmaceutical Co., Ltd., priority 1988, dated 1993):

Tests used:
CCK-A receptor = CCK-A receptor antagonist selectivity (statement only, no method); conditions: statement in words, no data
CCK receptor = CCK receptor antagonism in isolated fundic circular muscle from guinea pig stomach; conditions: test compound 1×10^-5 M added 5 minutes before CCK-8 (3.2×10^-7 M); isolated circular muscle strip
Protocol: CCK receptor antagonism in isolated fundic circular muscle from guinea pig stomach
The strip of circular muscle suspended in 25 ml organ bath containing Kreb's bicarbonate solution (NaCl 118 mM, KCl 4.8 mM, KH2 PO4 1.2 mM, MgSO4 1.2 mM, CaCl2 2.5 mM, NaHCO3 25 mM, glucose 11 mM and bovine serum albumin 0.1%) maintained at 37° C. and gassed with 95% O2 and 5% CO2.
The strip was placed under an initial tension of 0.5 g and equilibrated for 60 minutes during which the bath volume was replaced every 15 minutes. Isometric contraction was measured using a force transducer. CCK-8 (3.2×10^-7 M) was added to the bathing solution and the contractile force was measured. After washing out CCK-8, test compound A (1×10^-5 M) was added. 5 minutes later, CCK-8 was added and the contractile force was measured. CCK antagonism was calculated by comparing the contractile force induced by CCK in the absence or presence of test compound A.

SMILES | CCK-A receptor antagonist selectivity (CCK-A receptor) | Inhibition (%) of CCK-induced contractile force (CCK receptor) [%]
O=C(N[C@H]1N=C(c2ccccc2)c2ccccc2N(Cc2nnn[nH]2)C1=O)c1cc2ccccc2[nH]1 [Example 42, (3S)-1,3-dihydro-3-(2-indolylcarbonylamino)-5-phenyl-1-[(1 H-tetrazol-5-yl)-methyl]-2H-1,4-benzodiazepin-2-one] | selective CCK-A receptor antagonist | –
O=C(NC1N=C(c2ccccc2)c2ccccc2N(CCO)C1=O)c1cc2ccccc2[nH]1 (racemic) [test compound A, (3RS)-1,3-Dihydro-1-(2-hydroxyethyl)-3-(2-indolylcarbonylamino)-5-phenyl-2H-1,4-benzodiazepine-2-one] | – | 91
